Experimental data published in patent publication US20090054403A1, “Treatment of Post-Traumatic Stress Disorder” (priority 2007, published 2009).
“Also recorded” adds a separate entry of the source.

Assays:
[1] = system: tissue noradrenaline and dopamine content; experiment: Tissue catecholamines in SHR after three oral doses 12 h apart; format: in vivo, spontaneously hypertensive rats (SHR)
Procedure: The activity of nepicastat at twelve selected enzymes and receptors was determined using established assays. Details of individual receptor radioligand binding assays can be found in Wong et al (1993). Binding data were analyzed by iterative curve-fitting to a four parameter logistic equation. Ki values were calculated from IC50 values using the Cheng-Prusoff equation. Enzyme inhibitory activity was expressed as IC50 (concentration required to produce 50% inhibition of enzyme activity). Male SHRs (15-16 weeks old, Charles River, Wilmington, Mass., USA) were used in the study. On the day of the study, animals were weighed and randomly assigned to be dosed with either vehicle (control) or the appropriate dose of nepicastat (3, 10, 30 or 100 mg.kg^−1, po) or (R)-5-Aminomethyl-1-(5,7-difluoro-1,2,3,4-tetrahydronaphth-2-yl)-2,3-dihydro-2-thioxo-1H-imidazole hydrochloride (30 mg.kg^−1, po) three consecutive times, twelve hours apart. At six hours after the third dose, the rats were anaesthetized with halothane, decapitated and tissues (cerebral cortex, mesenteric artery and left ventricle) were rapidly harvested, weighed, placed in iced perchloric acid (0.4 M), frozen in liquid nitrogen and stored at −70° C. until subsequent analysis. To quantify noradrenaline and dopamine concentrations, tissues were homogenized by brief sonication and centrifuged at 13,000 rpm for 30 minutes at 4° C. The supernatant, spiked with 3,4-dihydroxybenzylamine (internal standard), was assayed for noradrenaline and dopamine by HPLC using electrochemical detection.
In vivo biochemical studies in spontaneously hypertensive rats (SHR) and normal dogs. Mate SHR (15-16 week old, Charles River, Wilmington, Mass.) were used in the study. On the day of the study, the animals were weighed and randomly assigned to receive either placebo (vehicle) or the appropriate dose of 2a, 2b or 1. Each rat was dosed orally three times, 12 h apart, beginning in the morning. At 6 h after the third dose, the rats were anesthetized with halothane, decapitated, and the tissues (cerebral cortex, mesenteric artery and left ventricle) were rapidly harvested, weighed, placed in iced 0.4 M perchloric acid, frozen in liquid nitrogen and stored at −70° C. until analysis. Tissue NE and DA concentrations were assayed by HPLC using electrochemical detection.
Fifteen to sixteen week old male spontaneously hypertensive rats (SHR) (Charles River Labs) were allowed food and water ad libitum. Animals were weighed and randomly assigned to one of the following treatment groups: 1) distilled water vehicle (dH2O), or nepicastat at 3, 10, 30, and 100 mg/kg, 2) (R)-5-Aminomethyl-1-(5,7-difluoro-1,2,3,4-tetrahydronaphth-2-yl)-2,3-dihydro-2-thioxo-1H-imidazole hydrochloride at 30 mg/kg in distilled water, or 3) PEG 400:dH2O vehicle or RS-2643 1-000 at 30 mg/kg. Each rat was dosed orally (p.o., using a gavage needle) three times 12 hours apart, beginning in the morning. At six hours after the third dose rats were anesthetized with halothane, decapitated, and the cortex, mesenteric artery, and left ventricle were rapidly harvested, weighed, placed in iced 0.4 M perchioric acid, frozen in liquid nitrogen, and stored at −70° C. Tissue dopamine and norepinephrine concentrations were assayed by high performance liquid chromatography and electrochemical detection.
Four series of statistical analyses were performed. The first series compared the rats treated with various doses of nepicastat, and (R)-5-Aminomethyl-1-(5,7-difluoro-1,2,3,4-tetrahydronaphth-2-yl)-2,3-dihydro-2-thioxo-1H-imidazole hydrochloride at 30 mg/kg to the vehicle control animals. A nonparametric one-way analysis of variance (ANOVA) with factor Dose and blocking factor Day was performed for each tissue and strain separately. Overall results are reported. Pairwise analysis between treated and controls at each dose were carried out using Dunnett's test to control the experiment-wise error rate. […]

pre-pulse inhibition = experiment: Pre-pulse inhibition of acoustic startle on day ten of chronic dosing
Procedure: (§1) The effects of chronic dosing of nepicastat were examined. Between three and thirteen days prior to the first dosing day the rats were placed inside the startle apparatus and after a five minute acclimation period they were presented with a 118 dB noise burst on average once a minute (a variable inter-trial interval ranging between 30 and 90 seconds will be used) for 20 minutes. The startle responses were measured and a mean for the last twenty startle response was calculated for each rat.
Acoustic startle reactivity (a series of muscle contractions elicited by an intense burst of noise with a rapid onset), and pre-pulse inhibition (sensorimotor gating measured by analyzing any decrease in startle reactivity which occurs when a startling stimulus is immediately preceded by a non startling stimulus) were both measured in eight SR-Lab (San Diego Instruments, San Diego, Calif.) test stations. The rats were placed individually in a Plexiglas cylinder (10 cm diameter) which was housed in a ventilated sound-attenuating enclosure. Acoustic noise bursts (a broad band noise with a rise time and fall time of 1 msec) were presented via a speaker mounted 30 cm above the animal. Also, these speakers produced a 68 dB level of background noise throughout all test sessions. […] A decibel meter was used to calibrate the speakers in each of the eight test station to ±1% of the mean. Additionally, a SR-Lab calibrating instrument was used to calibrate each of the eight startle detection apparatuses to ±2% of the mean. Startle reactivity and pre-pulse inhibition tests were run concurrently immediately alter the motor activity test (about 4 hours and 40 minutes after the morning daily injection of nepicastat, and SKF-102698, and 10 minutes after a supplemental administration of clonidine and d-amphetamine on dosing day ten).

plasma renin activity = experiment: Plasma renin activity after 5 days oral dosing; format: in vivo, SHR; details: 30 and 100 mg/kg/d p.o. for 5 days
[2] = system: spontaneous motor activity; experiment: Spontaneous motor activity on day ten of chronic dosing
Procedure: as §1
The animals were tested in an enclosed room with a white noise generator running. Motor activity tests were conducted immediately after the body core temperature reading taken on dosing day ten (about 3 hours and 35 minutes after the morning daily dose of nepicastat, and SKF-102698, and 20 minutes prior to the daily administration of clonidine and d-amphetamine on dosing day ten). Motor activity tests were run for one hour. A diagnostic program was run on each of the motor activity chambers prior to each test session to assure that the photo beams and light sensors were operating properly. […] D-amphetamine was used as the positive control for this assay.
Each rats spontaneous locomotion was obtained by calculating the total number of photobeams that the subject broke during the testing session.
Spontaneous motor activity was measured for each animal every 15 min for 1 hour. Each time block (every 15 min) was analyzed separately. Kruskal-Wallis test (nonparametric technique) was performed to test for the difference between treatment groups. If the overall significant difference […], Bonferroni's adjustment for multiple comparisons is then made.

[3] = 100 mg/kg po x3, 6 h after third dose
[4] = conclusion over rat dose-response studies
[5] = doses of 3, 10, 30 and 100 mg/kg

Compound: Cl.NCc1c[nH]c(=S)n1[C@@H]1CCc2c(F)cc(F)cc2C1 [R-enantiomer, (R)-5-Aminomethyl-1-(5,7-difluoro-1,2,3,4-tetrahydronaphth-2-yl)-2,3-dihydro-2-thioxo-1H-imidazole hydrochloride]
- dopamine vs vehicle, cerebral cortex ([1]; 30 mg/kg po x3): significant increase
- dopamine vs vehicle, left ventricle ([1]; 30 mg/kg po x3): significant increase
- dopamine vs vehicle, mesenteric artery ([1]; 30 mg/kg po x3): significant increase
- dopamine/norepinephrine ratio vs vehicle, cerebral cortex ([1]; 30 mg/kg po x3): no effect
- dopamine/norepinephrine ratio vs vehicle, left ventricle ([1]; 30 mg/kg po x3): significant increase
- dopamine/norepinephrine ratio vs vehicle, mesenteric artery ([1]; 30 mg/kg po x3): significant increase
- increase in DA/NE ratio, cerebral cortex ([1]; 30 mg/kg po x3): 1.1 fold
- increase in DA/NE ratio, left ventricle ([1]; 30 mg/kg po x3): 3.5 fold
- increase in DA/NE ratio, mesenteric artery ([1]; 30 mg/kg po x3): 2.6 fold
- norepinephrine vs vehicle, cerebral cortex ([1]; 30 mg/kg po x3): significant increase
- norepinephrine vs vehicle, left ventricle ([1]; 30 mg/kg po x3): did not significantly lower
- norepinephrine vs vehicle, mesenteric artery ([1]; 30 mg/kg po x3): did not significantly lower

Compound: Cl.NCc1c[nH]c(=S)n1[C@H]1CCc2c(F)cc(F)cc2C1 [nepicastat, (S)-5-Aminomethyl-1-(5,7-difluoro-1,2,3,4-tetrahydronaphth-2-yl)-2,3-dihydro-2-thioxo-1H-imidazole hydrochloride]
- percent prepulse inhibition vs vehicle (pre-pulse inhibition; rat, in vivo, po): None of the nepicastat dose groups were significantly different
- increase in DA/NE ratio, cerebral cortex ([1]; 30 mg/kg po x3): 1.5 fold
- increase in DA/NE ratio, left ventricle ([1]; 30 mg/kg po x3): 7.5 fold
- increase in DA/NE ratio, mesenteric artery ([1]; 30 mg/kg po x3): 8.3 fold
- maximal increase in DA/NE ratio, artery (mesenteric) ([1]; 100 mg/kg po x3): 14 fold
- maximal increase in DA/NE ratio, cerebral cortex ([1]; 100 mg/kg po x3): 3.2 fold
- maximal increase in DA/NE ratio, left ventricle ([1]; 100 mg/kg po x3): 11 fold
- decrease in noradrenaline, cerebral cortex [1, 3]: 42%
- decrease in noradrenaline, left ventricle [1, 3]: 35%
- decrease in noradrenaline, mesenteric artery [1, 3]: 47%
- increase in dopamine, cerebral cortex [1, 3]: 86%
- increase in dopamine, left ventricle [1, 3]: 800%
- increase in dopamine, mesenteric artery [1, 3]: 820%
- norepinephrine concentration vs vehicle, mesenteric artery ([1]; 10, 30 and 100 mg/kg): not significantly less (p>0.05) than vehicle
- dopamine/norepinephrine ratio vs vehicle, mesenteric artery ([1]; all doses (3-100 mg/kg)): significantly (p<0.05) greater than vehicle
- in vivo potency compared with the R enantiomer ([1]; all three tissues at 30 mg/kg): more potent than the R enantiomer
- dose inhibiting DBH in the cerebral cortex of rats [1, 4]: 60 to 100 mg/kg/day
- dose inhibiting DBH in the left ventricle and mesenteric artery of rats [1, 4]: 1 to 6 mg/kg/day
- dopamine concentration vs vehicle, left ventricle [1, 5]: significantly (p<0.05) greater than vehicle
- dopamine concentration vs vehicle, mesenteric artery [1, 5]: significantly (p<0.05) greater than vehicle
- dopamine/norepinephrine ratio vs vehicle, left ventricle [1, 5]: significantly (p<0.05) greater than vehicle
- norepinephrine concentration vs vehicle, left ventricle ([1]; doses of 10, 30 and 100 mg/kg): significantly (p<0.05) lower than vehicle
- dopamine concentration vs vehicle, cerebral cortex ([1]; doses of 30 and 100 mg/kg): significantly (p<0.05) greater
- dopamine/norepinephrine ratio vs vehicle, cerebral cortex ([1]; doses of 30 and 100 mg/kg): significantly (p<0.05) greater
- norepinephrine concentration vs vehicle, cerebral cortex ([1]; doses of 30 and 100 mg/kg): significantly (p<0.05) lower
- doses at which catecholamine changes attained statistical significance (p<0.05) ([1]; mesenteric artery and left ventricle): > 3 mg/kg
- in vivo effectiveness compared with SKF 102698 ([1]; three doses at 30 mg/kg over 24 hours): more effective than SKF 102698 in the mesenteric artery and left ventricle, but less effective in the cerebral cortex
- plasma renin activity (plasma renin activity): did not alter plasma renin activity
- spontaneous motor (locomotor) activity vs vehicle ([2]; rat, in vivo, po): no overall significant treatment effect

Compound: Fc1cc(F)cc(Cn2cc[nH]c2=S)c1 [SKF 102698, reference compound]
- percent prepulse inhibition vs vehicle (pre-pulse inhibition; day ten of b.i.d. oral dosing): marginally higher percent prepulse inhibition; also recorded: Neither d-amphetamine nor SKF 102698 was significantly different
- dopamine vs vehicle, cerebral cortex ([1]; 30 mg/kg po x3): significantly greater (p<0.01) than vehicle
- dopamine vs vehicle, left ventricle ([1]; 30 mg/kg po x3): significantly greater (p<0.01) than vehicle
- dopamine vs vehicle, mesenteric artery ([1]; 30 mg/kg po x3): significantly greater than vehicle
- dopamine/norepinephrine ratio vs vehicle, cerebral cortex ([1]; 30 mg/kg po x3): significantly (p<0.01) greater than vehicle
- dopamine/norepinephrine ratio vs vehicle, left ventricle ([1]; 30 mg/kg po x3): significantly (p<0.05) greater than vehicle
- dopamine/norepinephrine ratio vs vehicle, mesenteric artery ([1]; 30 mg/kg po x3): significantly greater than vehicle
- increase in DA/NE ratio, cerebral cortex ([1]; 30 mg/kg po x3): 2.7 fold
- increase in DA/NE ratio, left ventricle ([1]; 30 mg/kg po x3): 3.5 fold
- increase in DA/NE ratio, mesenteric artery ([1]; 30 mg/kg po x3): 5.5 fold
- norepinephrine vs vehicle, cerebral cortex ([1]; 30 mg/kg po x3): significantly lower than vehicle
- norepinephrine vs vehicle, left ventricle ([1]; 30 mg/kg po x3): not different from vehicle
- norepinephrine vs vehicle, mesenteric artery ([1]; 30 mg/kg po x3): significantly lower than vehicle
- spontaneous motor (locomotor) activity vs vehicle ([2]; day ten of b.i.d. oral dosing, 1 hour): significantly lower locomotor activity than its vehicle control at the first 45 minutes
- spontaneous motor (locomotor) activity vs vehicle ([2]; day ten of b.i.d. oral dosing, 1 hour, listed as SKF102698): significantly reduced
